Source: patent publication US20190045783A1, “SUBSTITUTED IMIDAZOLYLCARBOXAMIDES AS PESTICIDES” (BAYER CROPSCIENCE AKTIENGESELLSCHAFT, priority 2016, published 2019)
Read-outs that look alike come from different tables or passages of the source.

Legend:
[1] = tested on: green peach aphids (Myzus persicae); assay: Myzus persicae oral test (MYZUPE O), comparison with prior art; type: in vivo; settings: for Emax at 4 ppm / Emax at 0.8 ppm: Myzus persicae, po, read-out: % efficacy
Experimental: Myzus persicae—Oral Test (MYZUPE O)
(§1) Solvent: 100 parts by weight of acetone
50 μl of the active compound preparation are transferred into microtitre plates and made up to a final volume of 200 μl with 150 μl of IPL41 insect medium (33%+15% sugar). Subsequently, the plates are sealed with parafilm, which a mixed population of green peach aphids (Myzus persicae) within a second microtitre plate is able to puncture and imbibe the solution through it.
(§2) After the desired period of time (dat), the efficacy in % is determined. 100% means that all the aphids have been killed; 0% means that no aphids have been killed.

[2] = tested on: green peach aphid (Myzus persicae); assay: Myzus persicae spray test (MYZUPE), comparison with prior art; type: in vivo; settings: for Emax at 100 g/ha: Myzus persicae, read-out: % efficacy
Experimental: Myzus persicae—Spray Test (MYZUPE)
Emulsifier: alkylaryl polyglycol ether
as §2

[3] = tested on: green peach aphids (Myzus persicae); assay: Myzus persicae oral test; type: in vivo; settings: for pest or weed control at 20 ppm: Myzus persicae, 120 h, read-out: efficacy in %
Experimental: as §1
Subsequently, the plates are sealed with parafilm, which a mixed population of green peach aphids (Myzus persicae) within a second microtitre plate is able to puncture and imbibe the solution through it.
After 5 days, the efficacy in % is determined. 100% means that all the aphids have been killed; 0% means that no aphids have been killed.

[4] = log P by HPLC on reversed-phase column (C18), EEC directive 79/831 Annex V.A8; type: physicochemical
[5] = tested on: green peach aphid (Myzus persicae); assay: Myzus persicae spray test (Chinese cabbage leaf discs); type: in vivo; settings: for pest or weed control at 500 g/ha: Myzus persicae, foliar, read-out: efficacy in %
Experimental: Myzus persicae—Spray Test
To produce a suitable active ingredient formulation, 1 part by weight of active ingredient is dissolved with the stated parts by weight of solvent and made up with water containing an emulsifier concentration of 1000 ppm until the desired concentration is attained. To produce further test concentrations, the formulation is diluted with emulsifier-containing water.
After 5-6 days, the efficacy in % is determined. 100% means that all the aphids have been killed; 0% means that no aphids have been killed.

[6] = tested on: greenhouse red spider mite (Tetranychus urticae); assay: Tetranychus urticae spray test, OP-resistant; type: in vivo; settings: application rate 500 g/ha, after 6 days, bean leaf discs; 100% = all spider mites killed
Experimental: Tetranychus urticae—Spray Test, OP-Resistant
After 6 days, the efficacy in % is determined. 100% means that all the spider mites have been killed; 0% means that no spider mites have been killed.

[7] = application rate 20 ppm, after 5 days, oral, 100% = all aphids killed
[8] = application rate 500 g/ha, after 5-6 days, Chinese cabbage leaf discs, 100% = all aphids killed
[9] = reversed-phase HPLC column (C18), neutral range, pH 7.8, HPLC C18, 43° C., preparation examples, read-out: log P[n]
[10] = reversed-phase HPLC column (C18), neutral range, pH 7.8, HPLC C18, 43° C., Table 1, read-out: logP [n]
[11] = 120 h, MYZUPE O, 0.8 ppm, 5 dat
[12] = 120 h, MYZUPE, 100 g of ai/ha, 5 dat
[13] = neutral range, pH 7.8, HPLC C18, 43° C., Table 1

Molecule	efficacy in % [3, 7] [%]	logP [n] ([4]; pH 7.8)	efficacy in % [5, 8] [%]	pest or weed control at 20 ppm [3, 7] [%]	pest or weed control at 500 g/ha [5, 8] [%]	chromatographic logP [4, 10]	further results
2-(Ethylcarbamothioyl)-N,1-dimethyl-N-(pyridin-3-yl)-1H-imidazole-5-carboxamide [I-1-056]	100	1.42	100	–	–	–	% efficacy ([1]; MYZUPE O, 0.8 ppm, 5 dat): 100%; % efficacy ([1]; MYZUPE O, 4 ppm, 5 dat): 100%; % efficacy ([2]; MYZUPE, 100 g of ai/ha, 5 dat): 100%
CN(C(=O)c1cnc(/C=N/OCC2CC2)n1C)c1cccnc1 [I-1-008, 2-[(E)-(Cyclopropylmethoxyimino)methyl]-N,1-dimethyl-N-(pyridin-3-yl)-1H-imidazole-5-carboxamide]	–	–	–	100	100	–	chromatographic logP [4, 9]: 1.78; efficacy in % [6]: 90%
CN(C(=O)c1cnc(/C=N/OCc2ccc(Cl)cc2)n1C)c1cccnc1 [I-1-010]	90	2.43	90	–	–	–	efficacy in % [6]: 90%
CN(C(=O)c1cnc(/C=N/OCc2cccnc2)n1C)c1cccnc1 [I-1-024]	–	–	–	100	–	1.24	Emax at 4 ppm ([1]; 144 h, MYZUPE O, 4 ppm, 6 dat): 90%
CCOC(=O)c1ncc(C(=O)N(C)c2cccnc2)n1C [I-1-025]	–	–	–	–	–	1.1	Emax at 0.8 ppm ([1]; 120 h): 90%; Emax at 4 ppm ([1]; 120 h): 100%; Emax at 100 g/ha [2]: 90%; pest or weed control at 20 ppm ([3]; po): 100%; pest or weed control at 500 g/ha [5]: 90%
CN(C)C(=O)c1ncc(C(=O)N(C)c2cccnc2)n1C [I-1-033]	–	–	–	100	100	0.6	Emax at 0.8 ppm [1, 11]: 100%; Emax at 4 ppm ([1]; 120 h, MYZUPE O, 4 ppm, 5 dat): 100%; Emax at 100 g/ha [2, 12]: 90%
CCN(C(=O)c1cnc(C=NOC)n1C)c1cccnc1 [I-1-044]	–	–	–	–	100	1.29	Emax at 4 ppm ([1]; 120 h, MYZUPE O, 4 ppm, 5 dat): 100%; Emax at 100 g/ha [2, 12]: 90%
CCN(C(=O)c1cnc(C=NN(C)C(=O)OC)n1C)c1cccnc1 [I-1-045]	–	–	–	100	90	–	Emax at 4 ppm ([1]; 120 h, MYZUPE O, 4 ppm, 5 dat): 100%; Emax at 100 g/ha [2, 12]: 90%; chromatographic logP ([4]; neutral range, pH 7.8, HPLC C18, 43° C., Table 1, read-out: logP [n]): 1.28
CN(C(=O)c1cnc(C(=O)Nc2ccccc2)n1C)c1cccnc1 [I-1-047]	–	–	–	100	100	1.82	Emax at 4 ppm ([1]; 120 h, MYZUPE O, 4 ppm, 5 dat): 100%; Emax at 100 g/ha [2, 12]: 90%
CN(C(=O)c1cnc(C(=O)NCc2ccccc2)n1C)c1cccnc1 [I-1-050]	–	–	–	100	90	1.75	Emax at 0.8 ppm [1, 11]: 90%; Emax at 4 ppm ([1]; 120 h, MYZUPE O, 4 ppm, 5 dat): 90%; Emax at 100 g/ha [2, 12]: 90%
CN(C(=O)c1cnc(C(=O)N2CCCC2)n1C)c1cccnc1 [I-1-054, N,1-Dimethyl-N-(pyridin-3-yl)-2-(pyrrolidin-1-ylcarbonyl)-1H-imidazole-5-carboxamide]	–	–	–	100	100	1.02	–
CCNC(=S)c1ncc(C(=O)N(C)c2cccnc2)n1C [I-1-057]	100	1.64	90	–	–	–	log P[a] ([4]; pH 2.7): 1.21; log P[n] ([4]; pH 7.8): 1.42
CCN(CC)C(=O)c1ncc(C(=O)N(C)c2cccnc2)n1C [I-1-058]	100	–	100	–	–	–	logP [n] [4, 13]: 1.11
CN(C(=O)c1cnc(C(=O)N2CCOCC2)n1C)c1cccnc1 [I-1-059]	–	–	–	100	100	0.73	Emax at 4 ppm ([1]; 120 h, MYZUPE O, 4 ppm, 5 dat): 100%; Emax at 100 g/ha [2, 12]: 100%
CN(C(=O)c1cnc(C(=O)NC2CC2)n1C)c1cccnc1 [I-1-062]	100	1.06	100	–	–	–	–
COCCNC(=O)c1ncc(C(=O)N(C)c2cccnc2)n1C [I-1-064]	100	0.94	90	–	–	–	–
CC(C)CNC(=O)c1ncc(C(=O)N(C)c2cccnc2)n1C [I-1-065]	100	1.57	100	–	–	–	–

Molecule	efficacy in % [3, 7] [%]	logP [n] ([4]; pH 7.8)	efficacy in % [5, 8] [%]	pest or weed control at 20 ppm [3, 7] [%]	pest or weed control at 500 g/ha [5, 8] [%]	chromatographic logP [4, 10]	further results
CCNC(=O)c1ncc(C(=O)N(CC)c2cccnc2)n1C [I-1-066]	100	1.24	100	–	–	–	–
CN(C(=O)c1cnc(C(=O)C(C)(C)C#N)n1C)c1cccnc1 [I-1-067]	100	1.55	100	–	–	–	–
CCN(C)C(=O)c1ncc(C(=O)N(CC)c2cccnc2)n1C [I-1-068]	90	1.12	100	–	–	–	–
CON(C)C(=O)c1ncc(C(=O)N(C)c2cccnc2)n1C [I-1-069, N^2-Methoxy-N^2,N^5,1-trimethyl-N^5-(pyridin-3-yl)-1H-imidazole-2,5-dicarboxamide]	–	–	–	100	100	–	chromatographic logP [4, 9]: 0.72
CN(C(=O)c1cnc(C(=O)NS(C)(=O)=O)n1C)c1cccnc1 [I-1-070]	–	–	–	90	–	-0.2	Emax at 0.8 ppm [1, 11]: 100%
CN(C(=O)c1cnc(C(=O)N2CCC2)n1C)c1cccnc1 [I-1-071]	100	0.89	90	–	–	–	–
CCN(C(=O)c1cnc(C(=O)N(C)C)n1C)c1cccnc1 [I-1-072]	100	–	100	–	–	–	logP [n] [4, 13]: 0.88
CN(C(=O)c1cnc(C(=O)NC2(C#N)CC2)n1C)c1cccnc1 [I-1-073]	100	1.03	100	–	–	–	–
CCn1c(C(=O)N(C)c2cccnc2)cnc1C(=O)N(C)C [I-1-074]	–	–	–	90	100	0.86	Emax at 0.8 ppm [1, 11]: 100%; Emax at 4 ppm ([1]; 120 h, MYZUPE O, 4 ppm, 5 dat): 100%; Emax at 100 g/ha [2, 12]: 90%
CCOC(=O)CNC(=O)c1ncc(C(=O)N(C)c2cccnc2)n1C [I-1-075]	100	1.22	90	–	–	–	–
CN(C(=O)c1cnc(C(=O)NCC#N)n1C)c1cccnc1 [I-1-076]	–	–	–	100	100	0.78	Emax at 0.8 ppm [1, 11]: 90%; Emax at 4 ppm ([1]; 120 h, MYZUPE O, 4 ppm, 5 dat): 90%; Emax at 100 g/ha [2, 12]: 90%; efficacy in % [6]: 90%
CN(C(=O)c1cnc(C(=O)NC(CO)c2ccccc2)n1C)c1cccnc1 (stereo not shown) [I-1-079]	90	1.39	90	–	–	–	–
Cc1ccc(N(C)C(=O)c2cnc(C(=O)N(C)C)n2C)cn1 [I-1-080]	100	–	90	–	–	–	logP [n] [4, 13]: 0.81
CN(C(=O)c1cnc(C(=O)N(C)S(C)(=O)=O)n1C)c1cccnc1 [I-1-081]	100	1.11	90	–	–	–	–
CN(C)C(=O)c1ncc(C(=O)N(c2cccnc2)C2CC2)n1C [I-1-083]	–	–	–	90	90	1.02	Emax at 100 g/ha [2, 12]: 90%
CN(C(=O)c1cnc(C(=O)C2CC2)n1C)c1cccnc1 [I-1-084]	100	1.32	90	–	–	–	–
CC(=O)c1ncc(C(=O)N(C)c2cccnc2)n1C [I-1-085]	100	–	90	–	–	–	logP [n] [4, 13]: 0.87
